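Five concentrations, 48 hours, 96-well plates. Here, GI50 denotes the concentration required for 50% inhibition of growth.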 The source made the active and inactive calls. Cut-off read from the data, not from the text of the source: active = GI50 up to about 1.1 µM and inactive = higher.
Legend:
Assay in all cases: NCI-60 cell line screen, 48 h
COLO 205 = system: COLO 205
HCT-116 = system: HCT-116
HT-29 = system: HT-29
Hs-578T = system: Hs-578T
IGROV-1 = system: IGROV-1
KM12 = system: KM12
MOLT-4 = system: MOLT-4
PC-3 = system: PC-3
SK-MEL-5 = system: SK-MEL-5
T47D = system: T47D
TK-10 = system: TK-10
UACC-257 = system: UACC-257
HOP-92 = system: HOP-92
MDA-MB-435 = system: MDA-MB-435
Malme-3M = system: Malme-3M
SK-MEL-28 = system: SK-MEL-28
SR = system: SR
SW-620 = system: SW-620
OVCAR-4 = system: OVCAR-4
RXF 393 = system: RXF 393

| Structure (SMILES) | GI50 (COLO 205) | GI50 (HCT-116) | GI50 (HT-29) | GI50 (Hs-578T) | GI50 (IGROV-1) | GI50 (KM12) | GI50 (MOLT-4) | GI50 (PC-3) | GI50 (SK-MEL-5) | GI50 (T47D) | GI50 (TK-10) | GI50 (UACC-257) | GI50 (HOP-92) | GI50 (MDA-MB-435) | GI50 (Malme-3M) | GI50 (SK-MEL-28) | GI50 (SR) | GI50 (SW-620) | GI50 (OVCAR-4) | GI50 (RXF 393) |
| --- | --- | --- | --- | --- | --- | --- | --- | --- | --- | --- | --- | --- | --- | --- | --- | --- | --- | --- | --- | --- |
| CCOC(=O)c1c(NS(=O)(=O)c2ccc(C)cc2)sc2c1CCCC2 | 19 µM (inactive) | 21.4 µM (inactive) | 24.2 µM (inactive) | 26.9 µM (inactive) | 27.2 µM (inactive) | 19 µM (inactive) | 37.6 µM (inactive) | 16.2 µM (inactive) | 31.8 µM (inactive) | 43.3 µM (inactive) | 28.4 µM (inactive) | 35 µM (inactive) | – | – | – | – | – | – | – | – |
| O=C1c2cc(-c3ccccc3)cnc2S(=O)(=O)N1c1ccc(Br)cc1 | > 100 µM (inactive) | 71.9 µM (inactive) | > 100 µM (inactive) | 20 µM (inactive) | 46.2 µM (inactive) | 25.5 µM (inactive) | 46.3 µM (inactive) | 34.4 µM (inactive) | 70 µM (inactive) | 37.7 µM (inactive) | > 100 µM (inactive) | > 100 µM (inactive) | 27.1 µM (inactive) | > 100 µM (inactive) | 20.3 µM (inactive) | 90.8 µM (inactive) | 10.3 µM (inactive) | 81.8 µM (inactive) | – | – |
| O=C(c1ccccc1)N(CCCCNC(=O)C(F)(F)F)CCCNC(=O)C(F)(F)F | > 100 µM (inactive) | > 100 µM (inactive) | > 100 µM (inactive) | > 100 µM (inactive) | > 100 µM (inactive) | > 100 µM (inactive) | > 100 µM (inactive) | – | > 100 µM (inactive) | > 100 µM (inactive) | > 100 µM (inactive) | > 100 µM (inactive) | > 100 µM (inactive) | > 100 µM (inactive) | > 100 µM (inactive) | > 100 µM (inactive) | 0.94 µM (active) | > 100 µM (inactive) | > 100 µM (inactive) | > 100 µM (inactive) |
| CN(CCc1ccc(Br)cc1)CCN1CCCCC1 | 16.3 µM (inactive) | 17.7 µM (inactive) | 12.7 µM (inactive) | 19.7 µM (inactive) | 36.4 µM (inactive) | 21.1 µM (inactive) | 31 µM (inactive) | 27.2 µM (inactive) | 14.9 µM (inactive) | 39.7 µM (inactive) | 71.3 µM (inactive) | 36.3 µM (inactive) | 17.7 µM (inactive) | 26.4 µM (inactive) | 22.8 µM (inactive) | 20.4 µM (inactive) | – | 33.5 µM (inactive) | 54.8 µM (inactive) | 36.4 µM (inactive) |
| CCOc1cc(C=O)c2c(ccc3ccc(OC)c(OC)c32)c1OC | 32.5 µM (inactive) | 36 µM (inactive) | 37.5 µM (inactive) | 37.8 µM (inactive) | 89.9 µM (inactive) | 27.2 µM (inactive) | 13.3 µM (inactive) | 17.7 µM (inactive) | 52.4 µM (inactive) | 35.7 µM (inactive) | > 100 µM (inactive) | 59.3 µM (inactive) | > 100 µM (inactive) | 70.6 µM (inactive) | 55.7 µM (inactive) | 89.9 µM (inactive) | – | – | 51.1 µM (inactive) | > 100 µM (inactive) |
| N#Cc1nn(C(N)=O)c(N)c1C#N | > 100 µM (inactive) | > 100 µM (inactive) | > 100 µM (inactive) | > 100 µM (inactive) | > 100 µM (inactive) | > 100 µM (inactive) | > 100 µM (inactive) | > 100 µM (inactive) | > 100 µM (inactive) | > 100 µM (inactive) | > 100 µM (inactive) | > 100 µM (inactive) | – | – | – | > 100 µM (inactive) | > 100 µM (inactive) | > 100 µM (inactive) | > 100 µM (inactive) | – |
| CC1=C(C(=O)OC23CC4CC(CC(C4)C2)C3)C(c2ccccc2OC(F)F)C(C(=O)OC23CC4CC(CC(C4)C2)C3)=C(C)N1 (centres undefined) | > 100 µM (inactive) | > 100 µM (inactive) | > 100 µM (inactive) | 68.2 µM (inactive) | > 100 µM (inactive) | > 100 µM (inactive) | 63.7 µM (inactive) | – | > 100 µM (inactive) | > 100 µM (inactive) | – | > 100 µM (inactive) | > 100 µM (inactive) | > 100 µM (inactive) | > 100 µM (inactive) | > 100 µM (inactive) | > 100 µM (inactive) | > 100 µM (inactive) | > 100 µM (inactive) | > 100 µM (inactive) |
| C=C[C@@H](OCOCC[Si](C)(C)C)[C@@H](CC)OC(CCCOC(=O)C(C)(C)C)OC (some centres undefined) | 29.9 µM (inactive) | 21 µM (inactive) | 29.4 µM (inactive) | 27.1 µM (inactive) | 49 µM (inactive) | 24 µM (inactive) | 91.2 µM (inactive) | 37.3 µM (inactive) | 31.3 µM (inactive) | 19.4 µM (inactive) | 14.9 µM (inactive) | 34.6 µM (inactive) | 81.1 µM (inactive) | 38.5 µM (inactive) | – | 34.5 µM (inactive) | 41.6 µM (inactive) | 26.1 µM (inactive) | 26.4 µM (inactive) | – |
| COc1cc(-c2nc(SC)nc3c2CCc2ccccc2-3)cc(OC)c1OC | 53.5 µM (inactive) | 47.8 µM (inactive) | 50.1 µM (inactive) | > 100 µM (inactive) | 65.3 µM (inactive) | 65.9 µM (inactive) | 30.5 µM (inactive) | 34.5 µM (inactive) | 37 µM (inactive) | 26.8 µM (inactive) | – | 90.8 µM (inactive) | > 100 µM (inactive) | 95.1 µM (inactive) | – | > 100 µM (inactive) | – | > 100 µM (inactive) | 65 µM (inactive) | 36 µM (inactive) |
| COc1cc(C2SCC(=O)N2c2ccc(-c3ccc(-n4c(-c5ccccc5)nc5ccccc5c4=O)cc3)cc2)ccc1O (centres undefined) | > 100 µM (inactive) | 47.8 µM (inactive) | 39.2 µM (inactive) | 40.1 µM (inactive) | > 100 µM (inactive) | 48.2 µM (inactive) | 37 µM (inactive) | 40.4 µM (inactive) | 26.7 µM (inactive) | 14.4 µM (inactive) | > 100 µM (inactive) | > 100 µM (inactive) | 30.9 µM (inactive) | 74.1 µM (inactive) | > 100 µM (inactive) | > 100 µM (inactive) | > 10 µM (inactive) | 82 µM (inactive) | 37.9 µM (inactive) | – |
| CCOC(=O)CNC(=O)CNC(=O)CNC(=O)CNNc1c(OCc2ccccc2)c(=O)c1=O | > 100 µM (inactive) | > 100 µM (inactive) | > 100 µM (inactive) | > 100 µM (inactive) | > 100 µM (inactive) | > 100 µM (inactive) | > 100 µM (inactive) | > 100 µM (inactive) | > 100 µM (inactive) | > 100 µM (inactive) | > 100 µM (inactive) | > 100 µM (inactive) | – | > 100 µM (inactive) | > 100 µM (inactive) | > 100 µM (inactive) | – | > 100 µM (inactive) | > 100 µM (inactive) | > 100 µM (inactive) |
| CCC(=O)/C(=C\I)c1ccccc1 | 2.05 µM (inactive) | 1.79 µM (inactive) | 0.931 µM (active) | 5.2 µM (inactive) | 1.97 µM (inactive) | 6.56 µM (inactive) | 2.23 µM (inactive) | 3.01 µM (inactive) | – | 1.68 µM (inactive) | 15 µM (inactive) | 3.55 µM (inactive) | 2.16 µM (inactive) | 3.36 µM (inactive) | 1.67 µM (inactive) | 2.7 µM (inactive) | – | 1.58 µM (inactive) | – | 1.52 µM (inactive) |
| N#CSCc1cccc(Nc2cc(=O)[nH]c(=O)[nH]2)c1 | 37.2 µM (inactive) | 40.6 µM (inactive) | 37.2 µM (inactive) | 46.8 µM (inactive) | > 100 µM (inactive) | 97.1 µM (inactive) | – | > 100 µM (inactive) | 26.9 µM (inactive) | > 100 µM (inactive) | > 100 µM (inactive) | 85.1 µM (inactive) | 14.8 µM (inactive) | > 100 µM (inactive) | 31.8 µM (inactive) | 57.8 µM (inactive) | – | 55.6 µM (inactive) | 31.3 µM (inactive) | > 100 µM (inactive) |
| CCOC(=O)/C(C(=O)Nc1cccc(C(F)(F)F)c1)=C(/N)N1CCOCC1 | > 100 µM (inactive) | > 100 µM (inactive) | > 100 µM (inactive) | > 100 µM (inactive) | > 100 µM (inactive) | > 100 µM (inactive) | > 100 µM (inactive) | > 100 µM (inactive) | – | > 100 µM (inactive) | > 100 µM (inactive) | > 100 µM (inactive) | > 100 µM (inactive) | > 100 µM (inactive) | > 100 µM (inactive) | > 100 µM (inactive) | – | > 100 µM (inactive) | > 100 µM (inactive) | > 100 µM (inactive) |
| Nc1cc(O)c2c(c1O)C(=O)C=CC2=O | 6.62 µM (inactive) | 5.19 µM (inactive) | 4.55 µM (inactive) | 26.5 µM (inactive) | 15.2 µM (inactive) | 19.6 µM (inactive) | 4.66 µM (inactive) | 19.5 µM (inactive) | 8.26 µM (inactive) | 13.2 µM (inactive) | 26.6 µM (inactive) | 14.5 µM (inactive) | 14.8 µM (inactive) | 6.1 µM (inactive) | 2.67 µM (inactive) | 17.7 µM (inactive) | – | 4.33 µM (inactive) | 10.8 µM (inactive) | 6.93 µM (inactive) |
